Test results as given in US10508120B2, “TYK2 inhibitors and uses thereof” (Nimbus Lakshmi, Inc., priority 2017, dated 2019).
pIC50, pKd: −log10 of the molar value. Read-outs that look alike come from different tables or passages of the source.

How the values were obtained:
[1] = molecular target: Tyk2/JAK2 (heterodimeric complex) (Homo sapiens (Human), UniProt P29597); test: IL-12 Induced pSTAT4 in Human PBMC; format: cell-based; settings: 1.7 ng/mL IL-12
Description: The IL-12 Induced pSTAT4 assay evaluates the inhibition of IL-12 induced STAT4 phophorylation mediated by Tyk2/JAK2 (heterodimeric complex).

[2] = molecular target: human TYK2 (JH2domain-pseudokinase) (Homo sapiens (Human), UniProt P29597); test: TYK2 JH2 Domain Binding Assay (KINOMEscan)
How it was run: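 The construct was human TYK2 G556–D888 fused to the NFkB DNA-binding domain and expressed in HEK293 cells; unpurified extract was incubated with compound and liganded beads for 1 hour at room temperature.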

[3] = molecular target: JAK2 kinase domain (JH1) (Homo sapiens (Human), UniProt O60674); test: JAK2 Radioactive Kinase Assay; format: biochemical; settings: for inhibition at 10 µM: read-out: JAK2 JH1% Inhibition @ 10 μM
How it was run: (§1)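 Each kinase domain is incubated with test compound at 10 μM. Activity is then measured radiometrically and expressed as percent inhibition relative to uninhibited enzyme.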

[4] = molecular target: Tyk2 kinase domain (DH1) (Homo sapiens (Human), UniProt P29597); test: Tyk2 Radioactive Kinase Assay; format: biochemical; settings: for inhibition at 10 µM: read-out: Tyk2 JH1% Inhibition @ 10 μM
How it was run: as §1

[5] = molecular target: JAK2/JAK2 homdimeric complex (Homo sapiens (Human), UniProt O60674); test: GM-CSF Induced pSTAT5 in Human PBMC; format: cell-based; settings: GM-CSF 5 ng/mL for 20 minutes, pSTAT5 by MSD, read-out: PBMC_GMCSF_pSTAT5 IC50
Sequence of JAK2/JAK2 homdimeric complex (O60674 whole entry): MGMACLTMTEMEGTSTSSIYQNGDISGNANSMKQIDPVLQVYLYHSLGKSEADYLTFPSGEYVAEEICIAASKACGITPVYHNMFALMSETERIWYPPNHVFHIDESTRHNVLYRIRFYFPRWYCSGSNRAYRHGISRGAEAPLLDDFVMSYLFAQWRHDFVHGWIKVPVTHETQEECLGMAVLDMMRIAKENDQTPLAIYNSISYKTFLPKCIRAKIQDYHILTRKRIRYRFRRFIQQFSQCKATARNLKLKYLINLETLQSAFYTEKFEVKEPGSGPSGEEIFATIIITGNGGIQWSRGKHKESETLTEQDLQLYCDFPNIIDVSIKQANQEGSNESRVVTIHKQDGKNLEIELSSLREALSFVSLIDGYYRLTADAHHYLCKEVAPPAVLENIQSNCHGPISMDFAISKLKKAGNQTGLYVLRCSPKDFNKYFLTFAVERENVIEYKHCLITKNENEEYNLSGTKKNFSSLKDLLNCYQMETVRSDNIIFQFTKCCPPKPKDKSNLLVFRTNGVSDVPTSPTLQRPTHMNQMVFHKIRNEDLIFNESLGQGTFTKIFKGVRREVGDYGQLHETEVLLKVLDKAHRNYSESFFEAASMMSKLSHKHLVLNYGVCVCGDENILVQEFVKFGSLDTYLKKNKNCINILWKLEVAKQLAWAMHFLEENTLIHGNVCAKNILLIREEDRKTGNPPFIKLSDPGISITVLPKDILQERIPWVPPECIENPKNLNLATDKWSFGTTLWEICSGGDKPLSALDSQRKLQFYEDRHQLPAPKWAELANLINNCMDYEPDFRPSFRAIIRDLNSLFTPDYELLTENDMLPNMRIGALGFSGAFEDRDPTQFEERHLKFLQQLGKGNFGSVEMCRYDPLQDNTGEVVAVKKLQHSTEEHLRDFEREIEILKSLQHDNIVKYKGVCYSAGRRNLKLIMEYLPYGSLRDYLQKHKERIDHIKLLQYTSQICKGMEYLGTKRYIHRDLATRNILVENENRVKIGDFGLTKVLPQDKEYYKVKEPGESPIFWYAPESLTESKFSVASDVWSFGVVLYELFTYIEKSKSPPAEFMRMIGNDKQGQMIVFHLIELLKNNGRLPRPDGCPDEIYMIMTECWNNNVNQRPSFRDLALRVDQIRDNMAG
Sequence of JAK2/JAK2 homdimeric complex (P32927 17-897 partner): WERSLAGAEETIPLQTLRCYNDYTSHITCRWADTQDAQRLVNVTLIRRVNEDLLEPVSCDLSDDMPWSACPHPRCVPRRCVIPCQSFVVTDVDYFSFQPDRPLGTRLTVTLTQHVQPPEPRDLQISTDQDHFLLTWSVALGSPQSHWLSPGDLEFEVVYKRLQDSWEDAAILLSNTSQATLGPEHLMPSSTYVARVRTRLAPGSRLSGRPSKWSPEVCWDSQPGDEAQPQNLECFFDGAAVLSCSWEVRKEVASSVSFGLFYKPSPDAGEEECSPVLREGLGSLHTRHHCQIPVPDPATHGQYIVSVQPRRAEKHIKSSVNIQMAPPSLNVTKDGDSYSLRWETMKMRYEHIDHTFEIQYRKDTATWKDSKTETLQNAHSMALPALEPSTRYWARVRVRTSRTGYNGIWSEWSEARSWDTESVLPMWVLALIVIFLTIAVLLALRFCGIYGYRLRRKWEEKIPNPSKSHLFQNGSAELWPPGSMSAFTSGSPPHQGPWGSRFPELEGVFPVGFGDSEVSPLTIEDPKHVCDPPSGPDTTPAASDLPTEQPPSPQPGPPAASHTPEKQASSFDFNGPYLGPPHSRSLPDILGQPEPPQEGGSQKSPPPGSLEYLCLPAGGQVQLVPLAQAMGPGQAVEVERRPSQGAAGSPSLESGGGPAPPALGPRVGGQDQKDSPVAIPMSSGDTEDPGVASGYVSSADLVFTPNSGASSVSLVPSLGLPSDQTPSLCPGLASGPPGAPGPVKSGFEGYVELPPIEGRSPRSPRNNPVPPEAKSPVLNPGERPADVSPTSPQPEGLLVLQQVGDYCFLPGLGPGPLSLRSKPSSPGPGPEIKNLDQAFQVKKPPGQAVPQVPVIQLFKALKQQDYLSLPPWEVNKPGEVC

Sequence of Tyk2 kinase domain (DH1) (P29597 897-1176): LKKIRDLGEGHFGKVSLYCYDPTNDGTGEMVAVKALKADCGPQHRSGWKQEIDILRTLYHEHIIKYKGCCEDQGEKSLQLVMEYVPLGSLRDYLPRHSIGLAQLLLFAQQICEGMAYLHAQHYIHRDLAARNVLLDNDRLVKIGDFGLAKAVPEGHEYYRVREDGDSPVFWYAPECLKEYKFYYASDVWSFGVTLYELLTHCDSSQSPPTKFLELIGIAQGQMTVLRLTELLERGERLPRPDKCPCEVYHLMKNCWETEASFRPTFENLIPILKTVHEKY
Sequence of human TYK2 (JH2domain-pseudokinase) (P29597 556-888): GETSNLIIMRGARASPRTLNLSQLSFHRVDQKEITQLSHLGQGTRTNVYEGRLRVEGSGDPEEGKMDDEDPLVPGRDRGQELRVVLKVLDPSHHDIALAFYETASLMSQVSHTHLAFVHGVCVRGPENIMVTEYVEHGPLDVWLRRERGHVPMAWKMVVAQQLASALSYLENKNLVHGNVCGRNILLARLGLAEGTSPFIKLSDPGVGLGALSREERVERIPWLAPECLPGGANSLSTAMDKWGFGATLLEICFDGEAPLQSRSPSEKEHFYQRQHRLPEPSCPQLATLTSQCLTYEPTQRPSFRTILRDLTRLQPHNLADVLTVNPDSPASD
Sequence of Tyk2/JAK2 (heterodimeric complex) (P29597 whole entry, other chains not shown): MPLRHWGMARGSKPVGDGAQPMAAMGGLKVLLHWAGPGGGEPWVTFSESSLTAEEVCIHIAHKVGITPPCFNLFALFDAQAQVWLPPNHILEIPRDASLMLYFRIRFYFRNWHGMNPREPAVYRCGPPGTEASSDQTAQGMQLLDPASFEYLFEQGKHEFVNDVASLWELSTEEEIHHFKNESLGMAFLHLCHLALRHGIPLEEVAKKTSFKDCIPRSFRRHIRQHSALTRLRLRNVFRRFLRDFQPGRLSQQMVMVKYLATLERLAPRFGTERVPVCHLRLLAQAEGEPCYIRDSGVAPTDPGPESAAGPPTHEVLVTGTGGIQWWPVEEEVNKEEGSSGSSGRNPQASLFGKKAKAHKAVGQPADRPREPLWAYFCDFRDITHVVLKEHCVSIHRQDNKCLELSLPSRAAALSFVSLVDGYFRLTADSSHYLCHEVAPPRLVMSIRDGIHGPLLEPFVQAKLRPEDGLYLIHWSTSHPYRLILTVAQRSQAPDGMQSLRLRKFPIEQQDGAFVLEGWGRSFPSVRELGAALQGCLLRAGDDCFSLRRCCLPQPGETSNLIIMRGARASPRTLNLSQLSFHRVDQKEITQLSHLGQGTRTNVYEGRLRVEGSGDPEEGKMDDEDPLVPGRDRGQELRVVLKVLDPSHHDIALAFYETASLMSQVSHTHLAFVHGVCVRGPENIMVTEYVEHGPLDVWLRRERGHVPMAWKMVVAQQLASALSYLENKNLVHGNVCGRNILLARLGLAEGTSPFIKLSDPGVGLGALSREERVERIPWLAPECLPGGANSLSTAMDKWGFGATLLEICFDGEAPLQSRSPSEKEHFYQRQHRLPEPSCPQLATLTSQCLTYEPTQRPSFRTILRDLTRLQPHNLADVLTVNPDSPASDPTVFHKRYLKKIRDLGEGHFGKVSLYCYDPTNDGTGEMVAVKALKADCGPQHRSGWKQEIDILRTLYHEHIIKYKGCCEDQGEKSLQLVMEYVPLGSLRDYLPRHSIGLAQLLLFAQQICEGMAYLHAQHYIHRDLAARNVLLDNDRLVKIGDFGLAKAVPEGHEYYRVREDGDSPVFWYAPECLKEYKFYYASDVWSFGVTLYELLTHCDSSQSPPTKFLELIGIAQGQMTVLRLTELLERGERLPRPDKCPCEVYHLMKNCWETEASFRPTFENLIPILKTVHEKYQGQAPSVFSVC
Sequence of JAK2 kinase domain (JH1) (O60674 849-1124): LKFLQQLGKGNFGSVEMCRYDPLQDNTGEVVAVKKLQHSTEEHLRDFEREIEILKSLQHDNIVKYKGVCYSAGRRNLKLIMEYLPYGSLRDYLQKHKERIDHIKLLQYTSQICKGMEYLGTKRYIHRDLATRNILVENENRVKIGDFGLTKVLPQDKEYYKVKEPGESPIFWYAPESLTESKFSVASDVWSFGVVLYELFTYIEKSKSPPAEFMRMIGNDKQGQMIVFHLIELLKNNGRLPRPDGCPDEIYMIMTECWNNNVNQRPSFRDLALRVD

SMILES	pIC50 [1]	pKd [2]	inhibition at 10 µM ([3]; compound at 10 μM, ATP 10 μM) [%]	inhibition at 10 µM ([4]; compound at 10 μM, ATP 10 μM) [%]	pIC50 [5]	inhibition at 10 µM ([3]; 10 μM compound, 10 μM ATP) [%]	inhibition at 10 µM ([4]; 10 μM compound, 10 μM ATP) [%]	JAK2 JH1% Inhibition @ 10 μM ([3]; compound at 10 μM, ATP 10 μM)	Tyk2 JH1% Inhibition @ 10 μM ([4]; compound at 10 μM, ATP 10 μM)
CNc1cc(Nc2cc(C)cn(-c3ccn(C)n3)c2=O)nc2c(C(=O)N[C@H]3C[C@H]3F)cnn12 [I-250]	> 7.00	> 9.70	< 50	< 50	< 4.90	–	–	–	–
CNc1cc(Nc2cc(Cl)cn(-c3cc(C)n(C)n3)c2=O)nc2c(C(=O)NC3CC3)cnn12 [I-314]	> 7.00	> 9.70	< 50	< 50	< 5.60	–	–	–	–
CNc1cc(Nc2cccn(-c3ccccn3)c2=O)nc2c(C(=O)N[C@H]3C[C@H]3F)cnn12 [I-681]	> 7.00	> 9.70	< 50	< 50	< 4.90	–	–	–	–
CNc1cc(-c2cn(C(C)C)c3ncccc23)nc2c(C(=O)N[C@H]3CC[C@@H]3O)cnn12 [I-586, N-((1R,2R)-2-hydroycyclobutyl)-5-(1-isopropyl-1H-pyrrolo[2,3-b]pyridin-3-yl)-7-(methylamino)pyrazolo[1,5-a]pyrimidine-3-carboxamide]	> 7.00	> 9.70	< 50	< 50	< 4.30	–	–	–	–
CNc1cc(Nc2cc(F)cnc2OC)nc2c(C(=O)NCC(C)(C)CO)cnn12 [I-283]	> 7.00	> 9.70	< 50	< 50	< 4.30	–	–	–	–
CNc1cc(Nc2cccn(CC3CCCCO3)c2=O)nc2c(C(=O)N[C@H]3C[C@H]3F)cnn12 (some centres unmarked) [I-365]	> 7.00	> 9.70	< 50	< 50	< 4.30	–	–	–	–
CNc1cc(Nc2cccn(C3CCOCC3)c2=O)nc2c(C(=O)N[C@H]3C[C@H]3F)cnn12 [I-330]	> 7.00	> 9.70	< 50	< 50	< 5.60	–	–	–	–
CNc1cc(Nc2cc(Cl)cn(-c3ccc(C4CC4)nn3)c2=O)nc2c(C(=O)NC3CC3)cnn12 [I-333]	> 7.00	> 9.70	< 50	< 50	< 4.90	–	–	–	–
CNc1cc(Nc2cccn(-c3cnn(C)c3)c2=O)nc2c(C(=O)NC3CC3)cnn12 [I-295]	> 7.00	> 9.70	< 50	< 50	< 4.30	–	–	–	–
CNc1cc(Nc2cc(Cl)cn([C@H]3CCCOC3)c2=O)nc2c(C(=O)N[C@@H]3C[C@@H]3F)cnn12 [I-772]	> 7.00	> 9.70	< 50	< 50	< 6.52	–	–	–	–
CNc1cc(Nc2cc(Cl)cn(C3CCN(C)CC3)c2=O)nc2c(C(=O)NC3CC3)cnn12 [I-883]	> 7.00	> 9.70	–	–	< 4.90	< 50	< 50	–	–
CNc1cc(Nc2cc(Cl)cn([C@@H]3CCCOC3)c2=O)nc2c(C(=O)N[C@@H]3C[C@@H]3F)cnn12 [I-773]	> 7.00	> 9.70	< 50	< 50	< 4.90	–	–	–	–
CNc1cc(Nc2cc(Cl)cn(-c3ccn(C4CC4)n3)c2=O)nc2c(C(=O)NC3CC3)cnn12 [I-331]	> 7.00	> 9.70	< 50	< 50	< 4.90	–	–	–	–
CCn1cc(Cl)cc(Nc2cc(NC)n3ncc(C(N)=O)c3n2)c1=O [I-35]	> 7.00	> 9.70	< 50	< 50	< 6.52	–	–	–	–
CNc1cc(Nc2cccn(-c3ccn(C)n3)c2=O)nc2c(C(=O)NC3CC3)cnn12 [I-294]	> 7.00	9.00 to 9.70	< 50	< 50	< 4.90	–	–	–	–
CNc1cc(Nc2cccn(-c3ccc(N4CCOCC4)cn3)c2=O)nc2c(C(=O)NC3CCC3)cnn12 [I-163]	> 7.00	9.00 to 9.70	< 50	< 50	< 5.60	–	–	–	–
CNc1cc(Nc2cccnc2OC2CC2)nc2c(C(=O)N[C@H]3COC[C@H]3O)cnn12 [I-547]	6.30 to 7.00	> 9.70	< 50	< 50	< 4.30	–	–	–	–

SMILES	pIC50 [1]	pKd [2]	inhibition at 10 µM ([3]; compound at 10 μM, ATP 10 μM) [%]	inhibition at 10 µM ([4]; compound at 10 μM, ATP 10 μM) [%]	pIC50 [5]	inhibition at 10 µM ([3]; 10 μM compound, 10 μM ATP) [%]	inhibition at 10 µM ([4]; 10 μM compound, 10 μM ATP) [%]	JAK2 JH1% Inhibition @ 10 μM ([3]; compound at 10 μM, ATP 10 μM)	Tyk2 JH1% Inhibition @ 10 μM ([4]; compound at 10 μM, ATP 10 μM)
CNc1cc(Nc2cccn(-c3cnc(C(=O)N(C)C)cn3)c2=O)nc2c(C(=O)N[C@H]3C[C@H]3F)cnn12 [I-126]	> 7.00	> 9.70	< 50	< 50	< 4.30	–	–	–	–
CNc1cc(Nc2cc(Cl)cn(-c3ccc(C)nn3)c2=O)nc2c(C(=O)N[C@H]3C[C@H]3F)cnn12 [I-164]	> 7.00	> 9.70	< 50	< 50	< 4.30	–	–	–	–
CNc1cc(Nc2cccnc2OC2CC2)nc2c(C(=O)N[C@H]3C[C@H]3F)cnn12 [I-217]	> 7.00	> 9.70	< 50	< 50	< 4.30	–	–	–	–
CNc1cc(Nc2cc(F)cnc2OC2CC2)nc2c(C(=O)NC3CCC3)cnn12 [I-276]	> 7.00	> 9.70	< 50	< 50	< 4.30	–	–	–	–
CNc1cc(Nc2cccn([C@H]3CC[C@](C)(OC)CC3)c2=O)nc2c(C(=O)N[C@@H]3CC[C@@H]3O)cnn12 [I-722, N-((1S,2R)-2-hydroxycyclobutyl)-5-((1-((1R,4S)-4-methoxy-4-methylcyclohexyl)-2-oxo-1,2-dihydropyridin-3-yl)amino)-7-(methylamino)pyrazolo[1,5-a]pyrimidine-3-carboxamide]	> 7.00	> 9.70	–	–	< 4.90	–	–	A (percent inhibition at 10 μM lower than 50)	A (percent inhibition at 10 μM lower than 50)
CNc1cc(Nc2cc(Cl)cn(C3CCOCC3)c2=O)nc2c(C(=O)N[C@H]3CC[C@@H]3O)cnn12 [I-712]	> 7.00	> 9.70	< 50	< 50	< 4.90	–	–	–	–
CNc1cc(Nc2cccnc2OC2CC2)nc2c(C(=O)N[C@@H]3CC[C@@H]3O)cnn12 [I-401]	> 7.00	> 9.70	< 50	< 50	< 4.90	–	–	–	–
CNc1cc(Nc2cccn(-c3ccn(C)n3)c2=O)nc2c(C(=O)NC3CCC3)cnn12 [I-139]	> 7.00	> 9.70	< 50	< 50	< 4.30	–	–	–	–
CNc1cc(Nc2cccn(-c3ccnc(C)n3)c2=O)nc2c(C(=O)N[C@@H]3C[C@@H]3F)cnn12 (stereo in doubt) [I-124, N-((1R,2S)-2-fluorocyclopropyl)-7-(methylamino)-5-((1-(2-methylpyrimidin-4-yl)-2-oxo-1,2-dihydropyridin-3-yl)amino)pyrazolo[1,5-a]pyrimidine-3-carboxamide]	> 7.00	> 9.70	< 50	< 50	< 4.90	–	–	–	–
CNc1cc(Nc2cccn(CCOC)c2=O)nc2c(C(=O)NC3CCC3)cnn12 [I-269]	> 7.00	> 9.70	< 50	< 50	< 4.30	–	–	–	–
CNc1cc(Nc2cccnc2OC)nc2c(C(=O)N[C@H]3C[C@H]3F)cnn12 [I-110]	> 7.00	> 9.70	< 50	< 50	< 4.30	–	–	–	–
CNc1cc(Nc2cccnc2OC2CC2)nc2c(C(=O)NC3CC3)cnn12 [I-215, 5-((2-cyclopropoxypyridin-3-yl)amino)-N-cyclopropyl-7-(methylamino) pyrazolo[1,5-a]pyrimidine-3-carboxamide]	> 7.00	> 9.70	< 50	< 50	< 4.30	–	–	–	–
CNc1cc(Nc2cccn(C3CCCCC3)c2=O)nc2c(C(=O)N[C@@H]3CC[C@@H]3O)cnn12 [I-1000]	> 7.00	> 9.70	–	–	< 4.30	< 50	< 50	–	–
CNc1cc(Nc2cccn(C(C)C)c2=O)nc2c(C(=O)N[C@@H]3CC[C@H]3O)cnn12 [I-918]	> 7.00	> 9.70	–	–	< 4.30	< 50	< 50	–	–
[2H]C([2H])([2H])Oc1ncccc1Nc1cc(NC)n2ncc(C(=O)N[C@@H]3CC[C@H]3O)c2n1 [I-410]	> 7.00	> 9.70	50 to 70	< 50	< 4.90	–	–	–	–
CNc1cc(Nc2cccnc2OC2CCC2)nc2c(C(=O)N[C@H]3C[C@H]3F)cnn12 [I-170]	> 7.00	> 9.70	< 50	< 50	< 4.30	–	–	–	–
CNc1cc(Nc2cccn(-c3ncc(C)s3)c2=O)nc2c(C(=O)NC3CCC3)cnn12 [I-263]	> 7.00	> 9.70	< 50	< 50	< 5.60	–	–	–	–
